Results: patent US11225470B2, “Tetrazolinone compounds and its use as pest control agents” (SUMITOMO CHEMICAL COMPANY, LIMITED, priority 2016, dated 2022)

Experiments:
[1] = system: cotton aphid (Aphis gossypii); test: cotton aphid test on cucumber seedling; type: in vivo; details: 144 h, 500 ppm spray on infested cucumber seedling, counted after 6 days, read-out: Controlling value (%)
[2] = system: cabbage moth (Plutella xylostella); test: cabbage moth mortality test on cabbage seedling; type: in vivo; details: 120 h, 500 ppm spray on cabbage seedling, five second instar larvae, counted after 5 days, read-out: Morality (%)
Text: Any of the present compounds 1-4, 1-5, 1-6, 3-9, 3-13, 3-17, 3-23, 3-25, 3-26, 3-29, 3-31, 4-1 or 5-3, each of which was made to a formulation according to the similar method to that of Formulation Example 6, was mixed with water so as to be 500 ppm. The mixtures were sprayed to foliar parts of the cabbage seedling (on the developmental stage of the second to third true leaf) that was planted in a container so as to adhere adequately on the leaves of the above-mentioned cabbage. After the spraying, the stem and leaf of the seedling was cut out and then was installed into the container that was covered with the filter paper. Five heads of cabbage moth (Plutella xylostella) at the second instar larval stages were released into the cup. After 5 days, the surviving insects were counted, and the mortality of insects was calculated by the following equation. Morality (%)={1−the number of the surviving insects/5}×100

SMILES | pest or weed control at 500 ppm [1] | pest or weed control at 500 ppm [2]
CCC(=NN=C(C)c1cc2ccccc2o1)OCc1c(C)cccc1-n1nnn(C)c1=O [1-2] | ≥ 60% | 
CCC(=NN=C(C)c1cc2ccccc2s1)OCc1c(C)cccc1-n1nnn(C)c1=O [1-3] | ≥ 60% | 
CCC(=NN=C(C)c1cnccn1)OCc1c(C)cccc1-n1nnn(C)c1=O [1-4] | ≥ 60% | ≥ 80%
CCC(=NN=C(C)c1nc2ccccc2s1)OCc1c(C)cccc1-n1nnn(C)c1=O [1-5] |  | ≥ 80%
CC(=NN=C(OCc1c(C)cccc1-n1nnn(C)c1=O)N(C)C)c1ccc(F)cc1 [1-6] |  | ≥ 80%
CCSC(=NCCc1ccccc1)SCc1c(C)cccc1-n1nnn(C)c1=O [3-1] | ≥ 60% | 
CCc1ccc(N=C(SC)SCc2c(C)cccc2-n2nnn(C)c2=O)cc1 [3-8] | ≥ 60% | 
CSC(=NCc1ccccc1)SCc1c(C)cccc1-n1nnn(C)c1=O [3-9] |  | ≥ 80%
CSC(=NCc1cccc(C)c1)SCc1c(C)cccc1-n1nnn(C)c1=O [3-11] | ≥ 60% | 
CSC(=NCc1ccc(C)cc1)SCc1c(C)cccc1-n1nnn(C)c1=O [3-12] | ≥ 60% | 
COc1ccccc1CN=C(SC)SCc1c(C)cccc1-n1nnn(C)c1=O [3-13] |  | ≥ 80%
CSC(=NC(C)(C)C)SCc1c(C)cccc1-n1nnn(C)c1=O [3-17] |  | ≥ 80%
CSC(=NCC1CCOCC1)SCc1c(C)cccc1-n1nnn(C)c1=O [3-23] |  | ≥ 80%
CSC(=NCCc1ccccc1F)SCc1c(C)cccc1-n1nnn(C)c1=O [3-25] |  | ≥ 80%
CSC(=NCCc1cccc(F)c1)SCc1c(C)cccc1-n1nnn(C)c1=O [3-26] |  | ≥ 80%
CSC(=NCCCCc1ccccc1)SCc1c(C)cccc1-n1nnn(C)c1=O [3-29] | ≥ 60% | ≥ 80%
CSC(=NCCc1ccccc1Cl)SCc1c(C)cccc1-n1nnn(C)c1=O [3-31] |  | ≥ 80%
CSC(=Nc1cccc(C(F)(F)F)c1)SCc1c(C)cccc1-n1nnn(C)c1=O [4-1] |  | ≥ 80%
CSC(=Nc1ccc(F)cc1)SCc1c(C)cccc1-n1nnn(C)c1=O [4-6] | ≥ 60% | 
CC(=NOCc1c(C)cccc1-n1nnn(C)c1=O)OCCCc1ccccc1 [5-3] | ≥ 60% | ≥ 80%
CCON=C(C)C(C)=NN=C(CC)OCc1c(C)cccc1-n1nnn(C)c1=O [A-2] | ≥ 60% | 
CCC(=NN=C(C)C(C)=NOC(C)C)OCc1c(C)cccc1-n1nnn(C)c1=O [A-3] | ≥ 60% | ≥ 80%
CCC(=NN=C(C)C(C)=NO)OCc1c(C)cccc1-n1nnn(C)c1=O [B-1] |  | ≥ 80%
CCC(=NN=C(C)C(C)=NOCc1ccccc1)OCc1c(C)cccc1-n1nnn(C)c1=O [C-1] | ≥ 60% | ≥ 80%
C=CCON=C(C)C(C)=NN=C(CC)OCc1c(C)cccc1-n1nnn(C)c1=O [C-2] | ≥ 60% | ≥ 80%
CC=CCON=C(C)C(C)=NN=C(CC)OCc1c(C)cccc1-n1nnn(C)c1=O [C-3] | ≥ 60% | ≥ 80%
C#CCON=C(C)C(C)=NN=C(CC)OCc1c(C)cccc1-n1nnn(C)c1=O [C-5] |  | ≥ 80%
CCC(=NN=C(C)C(C)=NOCc1ccccc1C)OCc1c(C)cccc1-n1nnn(C)c1=O [C-7] | ≥ 60% | 
CCC(=NN=C(C)C(C)=NOCc1cccc(OC)c1)OCc1c(C)cccc1-n1nnn(C)c1=O [C-10] | ≥ 60% | ≥ 80%
CCC(=NN=C(C)C(C)=NOCc1cccc(C)c1)OCc1c(C)cccc1-n1nnn(C)c1=O [C-11] | ≥ 60% | ≥ 80%
